Read-outs that look alike come from different tables or passages of the source.
Assays:
[1] = test system: MCF-7 human breast cancer cells; assay: Cell viability assay (CELLTITER-GLO); format: cell-based; conditions: MCF7, 168 h, MCF-7 cells, 7 days
Method: The cell viability of MCF-7 human breast cancer cells under standard culture conditions was assessed using the CELLTITER-GLO assay. MCF-7 cells were seeded at 3,000 cells per well in 96-well plates and incubated overnight in a CO2 incubator. The next day, serial dilutions of Compound 1 at various concentrations were added to the wells. The plates were returned to the incubator and cultured for 7 days. After 7 days, the plates were equilibrated at room temperature for 30 minutes. Subsequently, 100 μL of CELLTITER-GLO detection solution was added. The cells were mixed on an orbital shaker for 5 min and then incubated for additional 10 min. The plate was read with an ENVISION reader. Data were processed and analyzed to determine the IC50 values.

CDK7/cyclin H = CDK7/cyclin H (Homo sapiens, UniProt P50613); assay: KinaseProfile radiometric protein kinase assay, CDK7/cyclin H; format: biochemical
CDK7/cyclin H, sequence (P50613 whole entry): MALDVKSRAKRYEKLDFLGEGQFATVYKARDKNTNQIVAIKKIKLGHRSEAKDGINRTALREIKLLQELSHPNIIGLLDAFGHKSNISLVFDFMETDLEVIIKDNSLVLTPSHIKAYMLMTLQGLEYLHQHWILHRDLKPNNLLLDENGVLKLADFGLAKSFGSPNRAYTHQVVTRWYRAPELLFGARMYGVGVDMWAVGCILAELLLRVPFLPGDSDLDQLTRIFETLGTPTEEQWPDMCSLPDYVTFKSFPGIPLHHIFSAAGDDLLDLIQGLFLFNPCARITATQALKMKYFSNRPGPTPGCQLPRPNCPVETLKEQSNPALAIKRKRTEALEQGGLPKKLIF
CDK7/cyclin H, sequence (P51946 whole entry partner): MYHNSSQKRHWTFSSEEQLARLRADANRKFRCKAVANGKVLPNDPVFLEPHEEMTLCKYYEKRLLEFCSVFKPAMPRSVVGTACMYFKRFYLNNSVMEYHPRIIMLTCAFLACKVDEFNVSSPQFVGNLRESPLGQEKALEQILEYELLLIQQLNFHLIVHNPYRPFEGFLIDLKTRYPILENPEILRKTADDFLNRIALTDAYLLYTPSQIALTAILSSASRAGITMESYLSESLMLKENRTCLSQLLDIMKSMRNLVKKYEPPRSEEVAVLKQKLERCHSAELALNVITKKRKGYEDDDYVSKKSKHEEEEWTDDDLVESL
CDK7/cyclin H, sequence (P51948 whole entry partner): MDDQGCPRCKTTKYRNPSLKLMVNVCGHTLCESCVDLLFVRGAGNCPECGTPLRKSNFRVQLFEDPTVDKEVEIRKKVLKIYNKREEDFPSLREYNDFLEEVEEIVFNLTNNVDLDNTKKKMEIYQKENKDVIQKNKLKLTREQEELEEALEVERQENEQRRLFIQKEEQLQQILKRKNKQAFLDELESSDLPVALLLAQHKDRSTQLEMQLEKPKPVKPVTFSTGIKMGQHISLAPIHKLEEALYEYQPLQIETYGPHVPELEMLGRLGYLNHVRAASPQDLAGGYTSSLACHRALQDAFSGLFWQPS
Method: (§1) The KinaseProfile radiometric protein kinase assay was used to evaluate the inhibitory activity of the compounds against CDK2/cyclin E, CDK4/cyclin D, CDK6/cyclin D, CDK7/cyclin H and CDK9/cyclin T.
(§2) The compounds were prepared in 100% DMSO at a final 50× stock concentration. The working stock solution was added as the first component to the assay wells. CDK2/cyclin E, CDK4/cyclin D, CDK6/cyclin D, CDK7/cyclin H, and CDK9/cyclin T were added in their respective kinase buffers: (CDK4: 8 mM MOPS pH 7.0, 0.2 mM EDTA, 0.03% BSA, 0.03% Tween 20, 20 mM DTT, and 0.2 mg/ml Rb fragment, 10 mM Magnesium acetate; CDK2, CDK6: 8 mM MOPS pH 7.0, 0.2 mM EDTA, 0.1 mg/mL histone H1, 10 mM Magnesium acetate; CDK7: 8 mM MOPS pH 7.0, 0.2 mM EDTA, 500 μM peptide, 10 mM Magnesium acetate; CDK9: 8 mM MOPS pH 7.0, 0.2 mM EDTA, 100 μM […], 10 mM Magnesium acetate) and [γ-^33 P-ATP] was included in the reaction mixture. The reaction was initiated by the addition of the Mg/ATP mixture and incubated at room temperature for 40 minutes. The reaction was terminated by the addition of 0.5% phosphoric acid. Then, 10 μL of the reaction mixture was spotted onto P30 filter pads, washed four times (1 minute each) with 0.425% phosphoric acid, followed by a single wash with methanol. The pads were then dried and counted. The data were recorded, inhibition rates were calculated, and IC50 values were determined accordingly. Table 2 summarizes the in vitro enzymatic inhibitory activity of the compounds of the present application.

CDK6/cyclin D = CDK6/cyclin D (Homo sapiens, UniProt Q00534); assay: KinaseProfile radiometric protein kinase assay, CDK6/cyclin D; format: biochemical
CDK6/cyclin D, sequence (Q00534 whole entry): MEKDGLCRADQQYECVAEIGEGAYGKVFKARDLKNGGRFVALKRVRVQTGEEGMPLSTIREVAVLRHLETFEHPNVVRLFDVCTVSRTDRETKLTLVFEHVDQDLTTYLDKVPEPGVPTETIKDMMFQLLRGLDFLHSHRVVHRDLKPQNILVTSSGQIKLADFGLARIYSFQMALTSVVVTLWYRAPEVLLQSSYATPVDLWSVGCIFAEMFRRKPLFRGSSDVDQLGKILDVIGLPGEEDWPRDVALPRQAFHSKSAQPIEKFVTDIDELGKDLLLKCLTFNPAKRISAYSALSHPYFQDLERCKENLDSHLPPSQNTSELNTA
CDK6/cyclin D, sequence (P30281 whole entry partner): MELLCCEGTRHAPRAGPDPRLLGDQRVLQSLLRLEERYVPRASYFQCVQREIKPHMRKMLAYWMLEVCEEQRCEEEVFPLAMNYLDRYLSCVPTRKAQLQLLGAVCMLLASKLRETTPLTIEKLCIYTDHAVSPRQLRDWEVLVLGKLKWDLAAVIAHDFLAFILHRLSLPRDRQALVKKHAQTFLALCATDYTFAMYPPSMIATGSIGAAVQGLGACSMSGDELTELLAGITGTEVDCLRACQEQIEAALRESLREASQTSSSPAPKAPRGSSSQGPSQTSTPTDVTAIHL
Method: as §1, §2

[2] = test system: 5-FU-induced diarrhea model; assay: 5-FU-induced diarrhea model, 5-FU 3-day model; format: in vivo, Balb/c mice; conditions: 5-FU 60 mg/kg once a day for 3 days, mice
Method: The 5-FU-induced diarrhea model was used as an experimental model of the present invention to evaluate the in vivo activity of the compounds.
Balb/c mice (20-25 g, 7-8 weeks old, Jihui) were acclimated for one week and then randomly assigned to 3 groups (n=10 per group): control group, 5-FU group, and CDK inhibitor group. […] […] […] From Day 1 to Day 7, diarrhea severity was assessed daily for each mouse according to the diarrhea scoring system.
(§3) The diarrhea scoring system was based on the method by Akinobu Kurita (Cancer Chemother Pharmacol 2000; 46:211-20), Grade 0: normal stool; Grade 1: mild diarrhea, slightly soft stool and wet stool; Grade 2: moderate diarrhea, loose stool with slight perianal staining; Grade 3: severe diarrhea, loose watery stool with severe perianal staining.
The diarrhea relief rate (%) was calculated as follows: […]

[3] = test system: Human colorectal cancer COLO205 cells; assay: Cell apoptosis assay (Caspase-Glo 3/7), 5-FU-induced apoptosis; format: cell-based
Method: The Caspase-Glo® 3/7 assay was employed to evaluate the protective effect of the compounds of the present invention against 5-fluorouracil (5-FU)-induced apoptosis. Human colorectal cancer COLO205 cells were cultured in RPMI 1640 medium (Invitrogen) in an incubator at 37° C. with 5% CO2.
COLO205 cells were seeded in 96-well plates at a density of 4,000 cells per well and incubated overnight. On the following day, serially diluted concentrations of Compound 1 were added to the wells and incubated for 16 hours. Afterward, 5-FU was added and the cells were incubated for an additional 48 hours. Subsequently, Caspase-Glo® 3/7 reagent (100 μL) was added to each well. The cells were mixed on an orbital shaker for 10 min and incubated at room temperature for 2 h. After an additional 10-minute incubation, the plate was measured using the Envision instrument and the data was processed. Relief rate (%)=(5-FU group−CDK group)/5-FU group×100%.

[4] = test system: Irinotecan-induced diarrhea model; assay: Irinotecan-induced diarrhea model; format: in vivo, Balb/c mice; conditions: irinotecan 230 mg/kg once a day, 1 day, mice
Description: Irinotecan-induced diarrhea and/or constipation models were employed as additional in vivo experimental models to evaluate the activity of the compounds of the present application.
Balb/c mice (20-25 g, 7-8 weeks old, Jihui) were acclimated for one week and then randomly assigned to 3 groups (n=10 per group): control group, irinotecan group, and CDK inhibitor group. Control group: received the same vehicle as the CDK inhibitor group by oral gavage, followed by injection of the same vehicle as the irinotecan group; irinotecan group: received the same vehicle by oral gavage as the CDK inhibitor group, followed by injection of irinotecan; CDK inhibitor group: received oral administration of the CDK inhibitor, followed by injection of irinotecan.
In the irinotecan group, approximately 6 to 9 out of 10 mice developed diarrhea. From Day 1 to Day 7, the severity of diarrhea in each mouse was evaluated using the following scoring criteria:
as §3, with “staining. Calculate the diarrhea Relief rate of compound treatment. Relief rate (%)=(diarrhea score of irinotecan group−diarrhea score of CDK inhibitor group)/diarrhea score of irinotecan group×100%.” for “staining.”

CDK9/cyclin T = CDK9/cyclin T (Homo sapiens, UniProt P50750); assay: KinaseProfile radiometric protein kinase assay, CDK9/cyclin T; format: biochemical
CDK9/cyclin T, sequence (P50750 whole entry): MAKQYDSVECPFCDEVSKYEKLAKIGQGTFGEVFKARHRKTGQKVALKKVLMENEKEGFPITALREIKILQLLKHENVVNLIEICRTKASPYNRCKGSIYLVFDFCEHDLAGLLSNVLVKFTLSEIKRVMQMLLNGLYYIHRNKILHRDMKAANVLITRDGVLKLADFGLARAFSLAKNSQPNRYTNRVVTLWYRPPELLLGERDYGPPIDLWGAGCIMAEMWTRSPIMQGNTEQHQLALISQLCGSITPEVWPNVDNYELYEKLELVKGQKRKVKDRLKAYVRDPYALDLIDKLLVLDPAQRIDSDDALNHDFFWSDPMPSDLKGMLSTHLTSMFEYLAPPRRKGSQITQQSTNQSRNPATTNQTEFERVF
CDK9/cyclin T, sequence (O60563 whole entry partner): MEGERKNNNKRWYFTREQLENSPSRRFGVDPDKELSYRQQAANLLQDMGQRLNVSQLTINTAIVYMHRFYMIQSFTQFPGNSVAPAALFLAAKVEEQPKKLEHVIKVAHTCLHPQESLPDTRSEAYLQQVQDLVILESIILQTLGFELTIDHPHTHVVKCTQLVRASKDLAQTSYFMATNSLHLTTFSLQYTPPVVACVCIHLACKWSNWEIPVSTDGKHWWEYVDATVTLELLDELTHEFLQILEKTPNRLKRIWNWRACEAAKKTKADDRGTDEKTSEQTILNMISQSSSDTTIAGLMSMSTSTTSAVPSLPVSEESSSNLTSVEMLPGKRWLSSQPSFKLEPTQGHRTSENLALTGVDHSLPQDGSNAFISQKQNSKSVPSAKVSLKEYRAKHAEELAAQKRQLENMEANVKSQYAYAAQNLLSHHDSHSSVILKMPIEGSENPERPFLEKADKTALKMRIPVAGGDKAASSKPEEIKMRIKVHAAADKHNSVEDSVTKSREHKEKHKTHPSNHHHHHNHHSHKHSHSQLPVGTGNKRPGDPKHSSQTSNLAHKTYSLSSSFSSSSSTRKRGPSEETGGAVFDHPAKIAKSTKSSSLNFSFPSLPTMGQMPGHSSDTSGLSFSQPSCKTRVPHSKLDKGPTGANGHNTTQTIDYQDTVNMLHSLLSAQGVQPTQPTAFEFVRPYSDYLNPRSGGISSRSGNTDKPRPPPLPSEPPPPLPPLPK
Method: as §1, §2

CDK4/cyclin D = CDK4/cyclin D (Homo sapiens, UniProt P11802); assay: KinaseProfile radiometric protein kinase assay, CDK4/cyclin D; format: biochemical
CDK4/cyclin D, sequence (P11802 whole entry): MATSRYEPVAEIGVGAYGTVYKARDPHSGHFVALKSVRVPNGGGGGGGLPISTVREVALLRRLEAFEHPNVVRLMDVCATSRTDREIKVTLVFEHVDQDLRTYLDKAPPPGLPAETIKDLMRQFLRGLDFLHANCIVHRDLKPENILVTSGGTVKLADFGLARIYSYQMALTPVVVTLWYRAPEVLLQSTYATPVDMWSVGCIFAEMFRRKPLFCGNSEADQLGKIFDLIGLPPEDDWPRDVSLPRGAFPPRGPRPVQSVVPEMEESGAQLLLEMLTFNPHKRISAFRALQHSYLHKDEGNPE
CDK4/cyclin D, sequence (P30281 whole entry partner): as the sequence (P30281 whole entry partner) above
Method: as §1, §2

[5] = 10 mg/kg oral twice a day for 3.5 days
[6] = 50 mg/kg oral twice a day for 3 days
[7] = 100 mg/kg oral twice a day for 3 days
[8] = 5 mg/kg oral, 4 hours before and 8 hours after irinotecan
[9] = 50 mg/kg oral, 4 hours before and 8 hours after irinotecan
[10] = 100 mg/kg oral, 6 hours before and 6 hours after irinotecan

| Structure (SMILES) | IC50 ([1]; read-out: Absolute IC 50) | IC50 ([1]; read-out: Relative IC 50) | IC50 (CDK7/cyclin H) | IC50 (CDK6/cyclin D) | diarrhea relief rate [2, 5] | diarrhea relief rate [2, 6] | diarrhea relief rate [2, 7] | Relief rate of 5-FU -induced cell apoptosis ([3]; concentration 0.1 μM) | Relief rate of 5-FU -induced cell apoptosis ([3]; concentration 1 μM) | Relief rate of 5-FU -induced cell apoptosis ([3]; concentration 5 μM) | Relief rate of 5-FU -induced cell apoptosis ([3]; concentration 25 μM) | diarrhea relief rate [4, 8] | diarrhea relief rate [4, 9] | diarrhea relief rate [4, 10] | IC50 (CDK9/cyclin T) | IC50 (CDK4/cyclin D) | other results |
| --- | --- | --- | --- | --- | --- | --- | --- | --- | --- | --- | --- | --- | --- | --- | --- | --- | --- |
| CC(=O)c1c(C)c2cnc(Nc3ccc(N4CCN(S(=O)(=O)NCC(C)N)CC4)cn3)nc2n(C2CCCC2)c1=O (stereo not drawn) [Compound 3] | < 10 µM | < 5 µM | > 10 µM | < 0.1 µM | 40% | 40% | 70% | 20% | 40% | 40% | 30% | 25% | 70% | 50% | > 3 µM | < 0.05 µM | diarrhea relief rate ([2]; 5 mg/kg oral twice a day for 4 days): 25%; diarrhea relief rate ([2]; 10 mg/kg oral twice a day for 3 days): 30%; diarrhea relief rate ([2]; 50 mg/kg oral twice a day for 3.5 days): 40%; diarrhea relief rate ([4]; 25 mg/kg oral, 10 hours before and 2 hours after irinotecan): 60% |
| CC(=O)c1c(C)c2c(n(C3CCCC3)c1=O)=NC(Nc1ccc(N3CCN(S(=O)(=O)NCCN)CC3)cn1)NC=2 (stereo not drawn) [Compound 1] | < 1 µM | < 1 µM | > 10 µM | < 0.05 µM | 40% | 40% | 50% | 30% | 60% | 80% | 40% | 30% | 37.5% | 20% | > 1 µM | < 0.05 µM | diarrhea relief rate ([2]; 25 mg/kg oral twice a day for 3 days): 60%; diarrhea relief rate ([2]; 75 mg/kg oral twice a day for 4 days): 55%; diarrhea relief rate ([2]; 100 mg/kg oral twice a day for 3.5 days): 40%; diarrhea relief rate ([4]; 10 mg/kg oral, 6 hours before and 6 hours after irinotecan): 33.3%; diarrhea relief rate ([4]; 25 mg/kg oral, 6 hours before and 6 hours after irinotecan): 50%; diarrhea relief rate ([4]; 100 mg/kg oral, 4 hours before and 8 hours after irinotecan): 30% |

Source: patent publication US20260207604A1, “COMPOUND AND USE THEREOF” (ONQUALITY PHARMACEUTICALS CHINA LTD., priority 2022, published 2026)
